Data taken from publication PMC8079033, “Design, synthesis, anticancer evaluation, and molecular modelling studies of novel tolmetin derivatives as potential VEGFR-2 inhibitors and apoptosis inducers” (Journal of Enzyme Inhibition and Medicinal Chemistry, 2021).

Assays:
caspase-9 = experiment: Caspase-9 ELISA in HCT-15 cells; format: cell-based, human
Experimental: (§1) To measure caspase-8 and caspase-9 levels, DRG® Caspase-8 (human) (EIA-4863) ELISA and DRG® Caspase-9 (human) (EIA-4860) ELISA kits were used. Briefly, prepare cell extracts after induction of apoptosis. Resuspend the extracts in lysis buffer, incubate 60 min at room temperature, and centrifuge for 15 min. Wash the microwell strips with 400 µl wash buffer. Add 100 µl of sample diluent in duplicate to all standard wells. Add 100 µl of sample diluent in duplicate to the blank wells. Add 50 µl of sample diluent to the sample wells. Add 50 µl of each sample in duplicate to the sample wells. Add 50 µl of detection antibody to all wells and incubate at room temperature for 2 h. Add 100 µl of diluted anti-rabbit-IgG-HRP to all wells, including the blank wells. Pipette 100 µl of (3,3′,5,5′-Tetramethylbenzidine) TMB substrate solution to all wells and incubate at room temperature for about 15 min. Stop the enzyme reaction by pipetting 100 µl of stop solution into each well. Read absorbance of each microwell on a spectro-photometer using 450 nm. Determine the absorbance of both the samples and the standards.
(§2) The activation of caspases as caspase-3, caspase-8, and caspase-9 is responsible for apoptosis, particularly caspase-3 which is an effector caspase that has an important role in apoptosis. It is activated by one of the initiator caspases which results in the activation of certain enzymes responsible for the fragmentation of DNA[53]. Caspase-8 and -9 are initiator caspases that are responsible for caspase-3 activation.

[1] = test system: leukaemia HL-60 (TB) cell line; experiment: MTT cytotoxicity assay; format: cell-based; details: Homo sapiens, mean ± SD of three experiments
renal (UO-31) cell line = experiment: MTT cytotoxicity assay; format: cell-based; details: Homo sapiens, mean ± SD of three experiments
HUVECs = experiment: Wound healing assay (CytoSelect 24-well); format: cell-based, human; details: 72 h, 5b 2.4 µM, sunitinib 3.2 µM, control 97.03 ± 5.47
Experimental: Wound healing assay of compound 5b was evaluated using CytoSelect™ 24-Well Wound Healing Assay kit Catalog # CBA-120 according to manufacturer’s instructions. In brief, the 24-well plate wound healing inserts were allowed to warm up at room temperature for 10 minutes, then to each well, 500 µl of human umbilical vascular endothelial cells (HUVECs) suspension (1.0 × 10^6) in media containing 10% fetal bovine serum (FBS) was added. Cells were kept in a cell culture incubator until a monolayer form. Carefully the insert was removed from the well. The media were slowly aspirated and discarded from the wells. The wells were washed with media to remove dead cells and debris. Finally, the media were added to wells to keep cells hydrated, then wells were visualized under a light microscope. […] The percent closure of the cells into the wound field was measured.
One of the hallmarks of angiogenesis is cell migration, which happens in the earlier stages of the angiogenic cascade. A wound-healing assay was performed to investigate in vitro anti-angiogenic property of compound 5b.

caspase-8 = experiment: Caspase-8 ELISA in HCT-15 cells; format: cell-based, human
Experimental: as §1, §2

caspase-3 = experiment: Caspase-3 (active) ELISA in HCT-15 cells; format: cell-based, human
Experimental: The level of the apoptotic marker caspase-3 was assessed using Human Caspase-3 (active) ELISA Kit Catalog # KHO1091. The procedure of the used kit was done according to the manufacturer’s instructions. Allow all reagents to reach room temperature before use. Gently mix all liquid reagents prior to use. Add 100 µl of the standard diluent buffer to the zero standard wells. Add 100 µl of standards and controls or diluted samples to the appropriate microtiter wells. Incubate for 2 h at room temperature. […] Incubate for 1 h at room temperature. Add 100 µl anti-rabbit IgG HRP working solution to each well. Prepare the working dilution and incubate for 30 min at room temperature. Add 100 µl of stabilised chromogen to each well. The liquid in the wells will begin to turn blue. Incubate for 30 min at room temperature and in the dark. Add 100 µl of stop solution to each well. The solution in the wells should change from blue to yellow. Read the absorbance of each well at 450 nm. Read the plate within 2 h after adding the stop solution. Use a curve fitting software to generate the standard curve. Read the concentrations for unknown samples and controls from the standard curve.
as §2

colon (HCT-15) cell line = experiment: MTT cytotoxicity assay; format: cell-based; details: Homo sapiens, mean ± SD of three experiments

Q: With CCN(CC)CCNC(=O)c1c(C)[nH]c(/C=C2\C(=O)Nc3ccc(F)cc32)c1C [Sunitinib, reference compound] as the molecule, how does the Caspase-9 (caspase-9; mean ± SD of three experiments, control 3.225 ± 0.44) read?
A: 27.26 ± 0.82 ng/mL

Q: And the “increase in the level of caspase-9” value (caspase-9; vs control)?
A: 8.453 fold

Q: What about the IC50 [1] of the same molecule?
A: 2.77 ± 0.14 µM

Q: What about the IC50 (renal (UO-31) cell line) of the same molecule?
A: 18.1 ± 0.95 µM

Q: What about the Wound closure percentage (HUVECs) of the same molecule?
A: 44.44 ± 2.51%

Q: And the Caspase-8 (caspase-8; mean ± SD of three experiments, control 0.377 ± 0.03)?
A: 1.284 ± 0.11 ng/mL

Q: And the “increase in the level of caspase-8” value (caspase-8; vs control)?
A: 3.406 fold

Q: What about the Caspase-3 (caspase-3; mean ± SD of three experiments, control 0.073 ± 0.01) of the same molecule?
A: 0.641 ± 0.02 ng/mL

Q: And the “increase in the level of caspase-3” value (caspase-3; vs control)?
A: 8.780 fold

Q: And the IC50 (colon (HCT-15) cell line)?
A: 9.06 ± 0.49 µM
